# Measurements from PubChem BioAssay AID602275 (The Scripps Research Institute Molecular Screening Center, 2012).
# Values joined by “and” are separate entries in the source; they are usually repeats but may differ in a detail not shown here. Equal entries are not always repeated. Active and inactive are the calls of the source. The rule behind the calls is not given here.
# Assays:
# NS3h 1b[con1] = test: NS3h unwinding inhibitors, genotype 1b and 2a – biochemical, real-time fluorescence, strains con1 and JFH1, set 3, selectivity assay for HCV NS3 helicase inhibitor project, late-stage follow-up (AID 602275); settings: Recombinant NS3h
# NS3h 2a[JFH1] = test: as above; settings: Recombinant NS3h
SMILES,outcome (NS3h 1b[con1]),IC50 (NS3h 2a[JFH1]),IC50 (NS3h 1b[con1]),outcome (NS3h 2a[JFH1])
Cc1cc2sc(-c3ccc(N)cc3)nc2cc1S(=O)(=O)O,inactive,inactive,–,–
COc1ccc(C(=O)Nc2ccc(-c3nc4ccc(-c5nc6ccc(C)c(S(=O)(=O)O)c6s5)cc4s3)cc2)cc1,–,5.4 µM,10 µM,–
CN1CCN(Cc2cc(CN3CCN(C)CC3)c(O)c(=O)c(CN3CCN(C)CC3)c2)CC1,–,18.9 µM,24 µM,–
COc1ccc(NC(=O)Nc2ccc(-c3nc4ccc(-c5nc6ccc(C)c(S(=O)(=O)O)c6s5)cc4s3)cc2)cc1,–,6.4 µM,4.8 µM,–
O=C(Nc1ccc(-c2nc3ccccc3[nH]2)cc1)c1ccc2ncsc2c1,–,24.3 µM,25.2 µM,–
NS(=O)(=O)c1ccc2nc(NC(=O)c3ccc4ncsc4c3)sc2c1,–,6 µM and 15.7 µM,37.9 µM and 40.5 µM,–
Cc1ccc2nc(-c3ccc4nc(-c5ccc(NC(=O)c6c(F)cccc6C(F)(F)F)cc5)sc4c3)sc2c1S(=O)(=O)O,–,inactive,16.8 µM,–
CC(=O)Nc1ccc(-c2nc3ccc(-c4nc5ccc(C)c(S(=O)(=O)O)c5s4)cc3s2)cc1,inactive,–,–,inactive
Cc1ccc2nc(-c3ccc(NC(=O)c4ccc(NC(=O)Nc5ccccc5)cc4)cc3)sc2c1S(=O)(=O)O,–,32.1 µM,43.8 µM,–
Cc1ccc2nc(-c3ccc(NC(=O)c4ccc(NC(=S)Nc5ccccc5)cc4)cc3)sc2c1S(=O)(=O)O,–,28.7 µM,28.8 µM,–
Cc1ccc2nc(-c3ccc4nc(-c5ccc(NC(=O)c6cccc(C(F)(F)F)c6F)cc5)sc4c3)sc2c1S(=O)(=O)O,–,8.1 µM,9.2 µM,–
Cc1cc2sc(-c3ccc4nc(-c5ccc(N)cc5)sc4c3)nc2cc1S(=O)(=O)O,–,3.9 µM,7 µM,–
Cc1ccc2c(sc(-c3ccc4c(c3)sc(-c3ccc5c(c3)sc(-c3ccc(N(C)C)cc3)[n+]5C)[n+]4C)[n+]2C)c1S(=O)(=O)O (tested in a mixture with another compound),–,15.6 µM,23.8 µM,–
Cc1ccc2nc(-c3ccc4nc(-c5ccc(NC(=O)c6ccc(N)cc6)cc5)sc4c3)sc2c1S(=O)(=O)O,–,5.3 µM,10.3 µM,–
O=C(CCCCCCC(=O)Nc1ccc(-c2nc3ccccc3[nH]2)cc1)Nc1ccc(-c2nc3ccccc3[nH]2)cc1,–,4.7 µM,7.5 µM,–
Cc1ccc2nc(-c3ccc(N)cc3)sc2c1S(=O)(=O)O,–,21.1 µM,inactive,–
Cc1ccc2nc(-c3ccc4nc(-c5ccc(NC(=O)c6cc(F)ccc6C(F)(F)F)cc5)sc4c3)sc2c1S(=O)(=O)O,–,16.6 µM,19 µM,–
Cc1ccc2nc(-c3ccc4nc(-c5ccc6nc(-c7ccc(N)cc7)sc6c5)sc4c3)sc2c1S(=O)(=O)O,–,0.6 µM,0.9 µM,–
CCN(CC)c1ccc(-c2nc3ccc(C)c(S(=O)(=O)O)c3s2)cc1,–,24.6 µM,32.9 µM,–
Cc1ccc(C(=O)Nc2ccc(-c3nc4ccc(-c5nc6ccc(C)c(S(=O)(=O)O)c6s5)cc4s3)cc2)cc1,–,2.5 µM,3.3 µM,–
Cc1ccc2nc(-c3ccc4nc(-c5ccc(NC(=S)Nc6ccccc6)cc5)sc4c3)sc2c1S(=O)(=O)O,–,9.6 µM,9.3 µM,–
Cc1ccc2nc(-c3ccc4nc(-c5ccc(NC(=O)c6cccc7ccccc67)cc5)sc4c3)sc2c1S(=O)(=O)O,–,3.9 µM,4.5 µM,–

SMILES,outcome (NS3h 1b[con1]),IC50 (NS3h 2a[JFH1]),IC50 (NS3h 1b[con1]),outcome (NS3h 2a[JFH1])
Cc1ccc2nc(-c3ccc4nc(-c5ccc(NC(=O)c6ccc(Cl)cc6)cc5)sc4c3)sc2c1S(=O)(=O)O,–,2.3 µM,3.4 µM,–
Cc1ccc2nc(-c3ccc4nc(-c5ccc(NC(=O)c6cccc(C(F)(F)F)c6)cc5)sc4c3)sc2c1S(=O)(=O)O,–,15.9 µM,19.7 µM,–
COc1ccc2sc(NC(=O)c3ccc4ncsc4c3)nc2c1,inactive,–,–,inactive
COc1ccc(S(=O)(=O)Nc2ccc(-c3nc4ccc(-c5nc6ccc(C)c(S(=O)(=O)O)c6s5)cc4s3)cc2)cc1,–,13.4 µM,24.4 µM,–
Cc1ccc2nc(-c3ccc4nc(-c5ccc(NC(=O)c6cc(F)cc(C(F)(F)F)c6)cc5)sc4c3)sc2c1S(=O)(=O)O,–,15.8 µM,28.4 µM,–
Cc1ccc2nc(-c3ccc4nc(-c5ccc(NC(=O)c6ccc(CNC(=O)OCC7c8ccccc8-c8ccccc87)cc6)cc5)sc4c3)sc2c1S(=O)(=O)O,–,4.6 µM,4.4 µM,–
Cc1ccc2nc(-c3ccc4nc(-c5ccc(NC(=O)c6ccc(C(C)(C)C)cc6)cc5)sc4c3)sc2c1S(=O)(=O)O,–,5 µM,8.2 µM,–
Cc1ccc2nc(-c3ccc(NC(=O)c4ccc(NC(=O)OCC5c6ccccc6-c6ccccc65)cc4)cc3)sc2c1S(=O)(=O)O,–,11.5 µM,11.8 µM,–
CCOc1ccc2c(NNC(=O)c3cnccn3)c3c(nc2c1)CCCC3,inactive,inactive,–,–
COc1cccc2c(=O)c3cc(Cl)cc(C(=O)Nc4cc(Cl)ccn4)c3[nH]c12,–,25.3 µM,27.5 µM,–
Cc1ccc2nc(-c3ccc4nc(-c5ccc(NC(=O)Nc6ccc(Cl)cc6)cc5)sc4c3)sc2c1S(=O)(=O)O,–,4.4 µM,3.6 µM,–
Cc1ccc(NC(=O)Nc2ccc(-c3nc4ccc(-c5nc6ccc(C)c(S(=O)(=O)O)c6s5)cc4s3)cc2)cc1,–,4 µM,5.3 µM,–
Cc1ccc2nc(-c3ccc4nc(-c5ccc(NC(=O)Nc6ccc(F)cc6)cc5)sc4c3)sc2c1S(=O)(=O)O,–,9.9 µM,7.8 µM,–
Cc1ccc2nc(-c3ccc4nc(-c5ccc(N(C)C(=O)c6ccc7ccccc7c6)cc5)sc4c3)sc2c1S(=O)(=O)O,–,13.5 µM,14.4 µM,–
Cc1ccc2nc(-c3ccc(NC(=O)c4ccc(N)cc4)cc3)sc2c1S(=O)(=O)O,–,inactive,inactive,–
Cc1ccc2nc(-c3ccc4nc(-c5ccc(NC(=O)c6ccccc6)cc5)sc4c3)sc2c1S(=O)(=O)O,–,4.6 µM,10.7 µM,–
Cc1ccc2nc(-c3ccc4nc(-c5ccc(NC(=O)c6ccc7nc(-c8ccc(N)cc8)sc7c6)cc5)sc4c3)sc2c1S(=O)(=O)O,–,3.2 µM,5.5 µM,–
COC(=O)c1ccc(C(=O)Nc2ccc(-c3nc4ccc(-c5nc6ccc(C)c(S(=O)(=O)O)c6s5)cc4s3)cc2)cc1,–,2.4 µM,9.7 µM,–
Cc1ccc2nc(-c3ccc4nc(-c5ccc(NC(=O)c6cccc(Cl)c6)cc5)sc4c3)sc2c1S(=O)(=O)O,–,3.9 µM,2.6 µM,–
O=C(Nc1nc2ccc(Br)cc2s1)c1ccc2ncsc2c1,inactive,–,–,inactive
Cc1ccc2nc(-c3ccc4nc(-c5ccc(NC(=O)c6ccc7ncoc7c6)cc5)sc4c3)sc2c1S(=O)(=O)O,–,6.4 µM,3.6 µM,–
Cc1ccc2nc(-c3ccc(NC(=O)c4ccc(NC(=O)c5ccccc5)cc4)cc3)sc2c1S(=O)(=O)O,–,inactive,inactive,–

SMILES,outcome (NS3h 1b[con1]),IC50 (NS3h 2a[JFH1]),IC50 (NS3h 1b[con1]),outcome (NS3h 2a[JFH1])
Cc1ccc2nc(-c3ccc4nc(-c5ccc(NCc6ccccc6)cc5)sc4c3)sc2c1S(=O)(=O)O,–,13.5 µM,11 µM,–
Cc1cc(C(O)(c2ccc(Nc3ccccc3)cc2)c2ccc(Nc3ccc(S(=O)(=O)O)cc3)cc2)ccc1N (configuration not stated),–,16.8 µM,28.6 µM,–
Cc1ccc2nc(-c3ccc4nc(-c5ccc(NC(=O)c6ccc(C(F)(F)F)cc6)cc5)sc4c3)sc2c1S(=O)(=O)O,–,2.3 µM,1.8 µM,–
Cc1ccc2nc(-c3ccc(NC(=O)c4ccc(NC(=O)c5ccc(NC(=O)OCC6c7ccccc7-c7ccccc76)cc5)cc4)cc3)sc2c1S(=O)(=O)O,–,1.9 µM,2.5 µM,–
Cc1ccc2nc(-c3ccc4nc(-c5ccc(NC(=O)c6ccc(N(C)C)cc6)cc5)sc4c3)sc2c1S(=O)(=O)O,–,6 µM,11 µM,–
Cc1ccc2nc(-c3ccc4nc(-c5ccc(NC(=O)c6ccc(Br)cc6)cc5)sc4c3)sc2c1S(=O)(=O)O,–,7.4 µM,5.2 µM,–
Cc1ccc2nc(-c3ccc4nc(-c5ccc(NC(=O)c6ccc7ccccc7c6)cc5)sc4c3)sc2c1S(=O)(=O)O,–,2.2 µM and 4.4 µM,2.7 µM and 3.6 µM,–
Cc1ccc2nc(-c3ccc4nc(NC(=O)c5ccc6ncoc6c5)sc4c3)sc2c1,–,inactive,inactive,–
Cc1ccc2nc(-c3ccc4nc(-c5ccc(NC(=O)c6ccc(Cl)c(Cl)c6)cc5)sc4c3)sc2c1S(=O)(=O)O,–,4.5 µM,3.7 µM,–
Cc1ccc2nc(-c3ccc4nc(-c5ccc(NC(=O)c6ccncc6)cc5)sc4c3)sc2c1S(=O)(=O)O,–,inactive,–,–
Cc1ccc2nc(-c3ccc(NC(=O)c4ccc(C(F)(F)F)cc4)cc3)sc2c1S(=O)(=O)O,inactive,–,–,inactive
Cc1ccc2nc(-c3ccc4nc(-c5ccc(NC(=O)c6ccc(C(F)(F)F)c(F)c6)cc5)sc4c3)sc2c1S(=O)(=O)O,–,13 µM,17.4 µM,–
Cc1ccc2nc(-c3ccc4nc(-c5ccc(NC(=O)c6ccc(F)cc6)cc5)sc4c3)sc2c1S(=O)(=O)O,–,3 µM,5.2 µM,–
Cc1ccc2nc(-c3ccc(NC(=O)c4ccc(NC(=O)c5ccc(N)cc5)cc4)cc3)sc2c1S(=O)(=O)O,–,25.5 µM,29.4 µM,–
Cc1ccc2nc(-c3ccc4nc(-c5ccc(NC(=O)c6cc(C(F)(F)F)cc(C(F)(F)F)c6)cc5)sc4c3)sc2c1S(=O)(=O)O,–,28.7 µM,–,–
Cc1ccc2nc(-c3ccc4nc(-c5ccc(NC(=O)c6cccnc6)cc5)sc4c3)sc2c1S(=O)(=O)O,–,28.3 µM,–,–
Cc1ccc2nc(-c3ccc4nc(-c5ccc6nc(-c7ccc(N)cc7)sc6c5)sc4c3)sc2c1S(=O)(=O)O (tested in a mixture with another compound),–,5.3 µM,12.8 µM,–
Cc1ccc2nc(-c3ccc4nc(-c5ccc(NC(=O)c6ccccc6C(F)(F)F)cc5)sc4c3)sc2c1S(=O)(=O)O,–,24.3 µM,14.1 µM,–
CCN(CC)c1ccc(-c2nc3ccc(-c4nc5ccc(C)c(S(=O)(=O)O)c5s4)cc3s2)cc1,–,4.7 µM,4.6 µM,–
Cc1ccc2nc(-c3ccc4nc(-c5ccc(NC(=O)Nc6ccc(C(F)(F)F)cc6)cc5)sc4c3)sc2c1S(=O)(=O)O,–,4 µM,5.1 µM,–
Cc1ccc2nc(-c3ccc4nc(-c5ccc(NC(=O)c6ccc7nc(-c8ccc(NC(=O)OCC9c%10ccccc%10-c%10ccccc%109)cc8)sc7c6)cc5)sc4c3)sc2c1S(=O)(=O)O,–,1.7 µM and 0.8 µM,4 µM and 28.9 µM,–
